pIC50: −log10 of the molar value. Converted amounts (≈) assume the structure as drawn. Where two headings read alike, the source gives them in different places.
Assays:
M. tuberculosis H37Rv = assay: In vitro antitubercular MIC; type: cell-based; details: Mycobacterium tuberculosis, read-out: Minimal inhibitory concentration
[1] = test system: M. tuberculosis INH susceptible (Spec. 192); assay: In vitro antitubercular MIC; type: cell-based; details: Mycobacterium tuberculosis, read-out: Minimal inhibitory concentration
Caco-2 = assay: MTT assay 72 h; type: cell-based; details: Homo sapiens
Experimental: (§1) The cell viability was assessed by using an enzymatic conversion of 3-(4,5-dimethylthiazol-2-yl)-2,5-diphenyltetrazolium bromide salt (MTT) to insoluble formazan crystals by mitochondrial dehydrogenases, occurring in living cells. Cells were cultured in 96-well plates at a density of l × 10^4 cells per well, and cultured to adhere for 24 h at 37 °C in a CO2 incubator. After 24 h of incubation, culture medium was replaced with a fresh medium, then cells were treated with various concentrations of the compounds and incubated for 72 h at 37 °C in a CO2 incubator. Untreated cells were used as the control. Subsequently, MTT solution (0,5 mg/mL in free-serum medium) was added, and samples were incubated for 4 h at 37 °C in a CO2 incubator. Then, the medium was aspirated, and formed formazan crystals were solubilized by adding an isopropanol-DMSO mixture (1:1 vol). The intensity of the dissolved crystals was measured using a UVM 340 reader (ASYS Hitech GmbH, Austria), at a wavelength of 570 nm. Cell viability was presented as a percent of MTT reduced in treated cells versus control cells (incubated without tested compounds). The relative MTT level (%) was calculated as [A]/[B]×100, where [A] is the absorbance of the test sample, and [B] is the absorbance of the control sample containing the untreated cells. The IC50 value was estimated using CalcuSyn version 1.0. […]
(§2) Antiproliferative activity of tested compounds. Data are given as IC50 [µM] and SI.
(§3) Human immortal keratinocyte cell line from adult human skin (HaCaT), Human colorectal adenocarcinoma (CaCo-2), Human epithelial lung carcinoma cell line (A549) and Human melanoma cell line (HTB-140). Data are expressed as mean ± SD. The SI (Selectivity Index) was calculated for each compound using formula: SI = IC50 for normal cel line / IC50 cancer cel line.

A549 = assay: MTT assay 72 h; type: cell-based, human
Experimental: as §1, §2, §3

HTB-140 = assay: MTT assay 72 h; type: cell-based, human; details: HTB-140, MTT 72 h, mean ± SD
Experimental: as §1, §2, §3

HaCaT = assay: MTT assay 72 h; type: cell-based, human
Experimental: as §1, §2, §3

S. aureus NCTC 4163 [2] = assay: MIC microdilution, standard strain; type: cell-based; details: Staphylococcus aureus
S. aureus ATCC 29213 = assay: MIC microdilution, standard strain; type: cell-based; details: Staphylococcus aureus
[3] = test system: S. epidermidis ATCC 12228; assay: MIC microdilution, standard strain; type: cell-based
E. hirae ATCC 10541 [4] = assay: MIC microdilution, standard strain; type: cell-based
E. coli ATCC 25922 = assay: MIC microdilution, standard strain; type: cell-based; details: E. coli ATCC 25922, 18 h, 35 °C
E. coli NCTC 8196 = assay: MIC microdilution, standard strain; type: cell-based; details: E. coli NCTC 8196, 18 h, 35 °C
P. aeruginosa ATCC 15442 [5] = assay: MIC microdilution, standard strain; type: cell-based; details: Pseudomonas aeruginosa, ATCC15442, 18 h
S. aureus NCTC 4163 [6] = test system: S. aureus NCTC 4163; set-up: method as in PMID 30031974; details: previous project ref 20; cited from earlier work
[7] = test system: S. epidermidis ATCC 12228; set-up: method as in PMID 30031974; details: previous project ref 20; cited from earlier work
E. hirae ATCC 10541 [8] = test system: E. hirae ATCC 10541; set-up: method as in PMID 30031974; details: previous project ref 20; cited from earlier work
P. aeruginosa ATCC 27853 = test system: P. aeruginosa ATCC 27853; set-up: method as in PMID 30031974; details: previous project ref 20; cited from earlier work
P. aeruginosa ATCC 15442 [9] = test system: P. aeruginosa ATCC 15442; set-up: method as in PMID 30031974; details: previous project ref 20; cited from earlier work
[10] = test system: standard bacterial strains; set-up: method as in PMID 30031974; details: various standard bacterial strains; cited from earlier work
[11] = test system: hospital staphylococcal isolates; set-up: method as in PMID 30031974; details: clinical cocci; cited from earlier work
[12] = Caco-2, MTT 72 h, mean ± SD, read-out: IC50
[13] = Homo sapiens, A549, MTT 72 h, mean ± SD, read-out: IC50
[14] = Homo sapiens, HaCaT normal cells, MTT 72 h, mean ± SD, read-out: IC50
[15] = NCTC4163, S. aureus NCTC 4163, 18 h, 35 °C, read-out: MIC
[16] = ATCC29213, S. aureus ATCC 29213, 18 h, 35 °C, read-out: MIC
[17] = Staphylococcus epidermidis, ATCC12228, S. epidermidis ATCC 12228, 18 h, 35 °C, read-out: MIC
[18] = Enterococcus hirae, ATCC10541, E. hirae ATCC 10541, 18 h, 35 °C, read-out: MIC
[19] = Escherichia coli, ATCC25922, read-out: MIC
[20] = Escherichia coli, NCTC8196, read-out: MIC

| Structure (SMILES) | MIC (M. tuberculosis H37Rv) [µg/mL] | MIC [1] [µg/mL] | pIC50 (Caco-2; [12]) | pIC50 (A549; [13]) | pIC50 (HTB-140; Homo sapiens) | pIC50 (HaCaT; [14]) | also measured |
| --- | --- | --- | --- | --- | --- | --- | --- |
| Clc1ccc(-n2nnnc2NCc2ccco2)cc1Cl [Compound 5, 1-(3,4-dichlorophenyl)-N-(furan-2-ylmethyl)-1H-tetrazol-5-amine] | > 512 | > 512 | < 4.00 | < 4.00 | < 4.00 | < 4.00 |  |
| Clc1ccc(-n2nnnc2NCc2ccco2)cc1 [Compound 8, 1-(4-chlorophenyl)-N-(furan-2-ylmethyl)-1H-tetrazol-5-amine] | 256 (≈ 929 µM) | 512 (≈ 1860 µM) | < 4.00 | < 4.00 | < 4.00 | < 4.00 | MIC (S. aureus NCTC 4163 [2]; [15]): 128 µg/mL (≈ 464 µM); MIC (S. aureus ATCC 29213; [16]): 128 µg/mL (≈ 464 µM); MIC ([3]; S. epidermidis ATCC 12228, 18 h, 35 °C): >; MIC (E. hirae ATCC 10541 [4]; E. hirae ATCC 10541, 18 h, 35 °C): >; MIC (E. coli ATCC 25922): >; MIC (E. coli NCTC 8196): > |
| Ic1ccc(-n2nnnc2NCc2ccco2)cc1 [Compound 3, N-(furan-2-ylmethyl)-1-(4-iodophenyl)-1H-tetrazol-5-amine] | > 512 | > 512 | < 4.00 | < 4.00 | < 4.00 | < 4.00 | MIC (S. aureus NCTC 4163 [2]; [15]): 64 µg/mL (≈ 174 µM); MIC (S. aureus ATCC 29213; [16]): 64 µg/mL (≈ 174 µM); MIC [3, 17]: 128 µg/mL (≈ 349 µM); MIC (E. hirae ATCC 10541 [4]; [18]): 128 µg/mL (≈ 349 µM); MIC (E. coli ATCC 25922; [19]): 128 µg/mL (≈ 349 µM); MIC (E. coli NCTC 8196; [20]): 128 µg/mL (≈ 349 µM); MIC (P. aeruginosa ATCC 15442 [5]): 512 µg/mL (≈ 1390 µM) |
| COc1cccc2c1C(=O)c1c(O)c3c(c(O)c1C2=O)C[C@@](O)(C(=O)CO)C[C@@H]3O[C@H]1C[C@H](N)[C@H](O)[C@H](C)O1 [doxorubicin, reference compound] |  |  |  |  |  |  | pIC50 (Caco-2; Caco-2, 72 h): 6.28; pIC50 (A549; Homo sapiens, A549, 72 h): 6.20; pIC50 (HaCaT; Homo sapiens, HaCaT, 72 h): 5.96 |
| Fc1ccc(-n2nnnc2NCc2ccco2)cc1Cl [Ref 2, 1-(3-chloro-4-fluorophenyl)-N-(furan-2-ylmethyl)-1H-tetrazol-5-amine] |  |  |  |  |  |  | MIC (S. aureus NCTC 4163 [6]): 2 µg/mL (≈ 6.81 µM); MIC [7]: 2 µg/mL (≈ 6.81 µM); MIC (E. hirae ATCC 10541 [8]): 4 µg/mL (≈ 13.6 µM); MIC (P. aeruginosa ATCC 27853): 2 µg/mL (≈ 6.81 µM); MIC (P. aeruginosa ATCC 15442 [9]): 64 µg/mL (≈ 218 µM); MIC (range) [10]: 0.25 to 4 µg/mL; MICs (range) [11]: 2 to 16 µg/mL |
| Clc1cccc(-n2nnnc2NCc2ccco2)c1 [Compound 4, 1-(3-chlorophenyl)-N-(furan-2-ylmethyl)-1H-tetrazol-5-amine] | > 512 | 512 (≈ 1860 µM) | < 4.00 | < 4.00 | < 4.00 | < 4.00 | MIC (S. aureus NCTC 4163 [2]; NCTC4163, 18 h): 256 µg/mL (≈ 929 µM); MIC (S. aureus ATCC 29213; ATCC29213, 18 h): 256 µg/mL (≈ 929 µM); MIC [3, 17]: 512 µg/mL (≈ 1860 µM); MIC (E. hirae ATCC 10541 [4]; [18]): 512 µg/mL (≈ 1860 µM); MIC (E. coli ATCC 25922): >; MIC (E. coli NCTC 8196; [20]): 512 µg/mL (≈ 1860 µM) |
| Cc1ccc(-n2nnnc2NCc2ccco2)cc1Cl [Ref 1, 1-(3-chloro-4-methylphenyl)-N-(furan-2-ylmethyl)-1H-tetrazol-5-amine] |  |  |  |  |  |  | MIC (S. aureus NCTC 4163 [6]): 4 µg/mL (≈ 13.8 µM); MIC [7]: 2 µg/mL (≈ 6.9 µM); MIC (E. hirae ATCC 10541 [8]): 8 µg/mL (≈ 27.6 µM); MIC (P. aeruginosa ATCC 27853): 4 µg/mL (≈ 13.8 µM); MIC (P. aeruginosa ATCC 15442 [9]): 32 µg/mL (≈ 110 µM) |
| Brc1ccc(-n2nnnc2NCc2ccco2)cc1 [Compound 10, 1-(4-bromophenyl)-N-(furan-2-ylmethyl)-1H-tetrazol-5-amine] | > 512 | > 512 | < 4.00 | < 4.00 | < 4.00 | < 4.00 |  |
| Clc1ccccc1-n1nnnc1NCc1ccco1 [Compound 11, 1-(2-chlorophenyl)-N-(furan-2-ylmethyl)-1H-tetrazol-5-amine] | 512 (≈ 1860 µM) | 256 (≈ 929 µM) | < 4.00 | < 4.00 | < 4.00 | < 4.00 |  |
| N.N.[Cl][Pt][Cl] [cisplatin, reference compound] |  |  |  |  |  |  | pIC50 (A549; A549, MTT 72 h, mean ± SD, read-out: IC50): 5.71; pIC50 (HTB-140): 5.95; pIC50 (HaCaT; HaCaT normal cells, MTT 72 h, mean ± SD, read-out: IC50): 5.55 |
| Brc1cccc(-n2nnnc2NCc2ccco2)c1 [Compound 7, 1-(3-bromophenyl)-N-(furan-2-ylmethyl)-1H-tetrazol-5-amine] | 512 (≈ 1600 µM) | 512 (≈ 1600 µM) | < 4.00 | < 4.00 | < 4.00 | < 4.00 |  |
| Fc1ccc(-n2nnnc2NCc2ccco2)cc1 [Compound 1, 1-(4-fluorophenyl)-N-(furan-2-ylmethyl)-1H-tetrazol-5-amine] | 256 (≈ 987 µM) | 256 (≈ 987 µM) | < 4.00 | < 4.00 | < 4.00 | < 4.00 | MIC (S. aureus NCTC 4163 [2]; [15]): 64 µg/mL (≈ 247 µM); MIC (S. aureus ATCC 29213; [16]): 64 µg/mL (≈ 247 µM); MIC ([3]; Staphylococcus epidermidis, ATCC12228, 18 h): 256 µg/mL (≈ 987 µM); MIC (E. coli ATCC 25922; [19]): 128 µg/mL (≈ 494 µM); MIC (E. coli NCTC 8196; [20]): 128 µg/mL (≈ 494 µM) |
| Fc1cccc(-n2nnnc2NCc2ccco2)c1 [Compound 9, 1-(3-fluorophenyl)-N-(furan-2-ylmethyl)-1H-tetrazol-5-amine] | 256 (≈ 987 µM) | 256 (≈ 987 µM) | < 4.00 | < 4.00 | < 4.00 | < 4.00 |  |
| Cc1ccc(Cl)cc1-n1nnnc1NCc1ccco1 [Compound 2, 1-(5-chloro-2-methylphenyl)-N-(furan-2-ylmethyl)-1H-tetrazol-5-amine] | > 512 | > 512 | < 4.00 | < 4.00 | < 4.00 | < 4.00 | MIC (S. aureus NCTC 4163 [2]; [15]): 64 µg/mL (≈ 221 µM); MIC (S. aureus ATCC 29213; [16]): 64 µg/mL (≈ 221 µM); MIC [3, 17]: 256 µg/mL (≈ 884 µM); MIC (E. hirae ATCC 10541 [4]; [18]): 64 µg/mL (≈ 221 µM); MIC (E. coli ATCC 25922; [19]): 128 µg/mL (≈ 442 µM); MIC (E. coli NCTC 8196; [20]): 128 µg/mL (≈ 442 µM) |
| NNC(=O)c1ccncc1 [INH, isoniazid, reference compound] | ≤ 0.0625 | ≤ 0.0625 |  |  |  |  |  |
| Brc1ccccc1-n1nnnc1NCc1ccco1 [Compound 12, 1-(2-bromophenyl)-N-(furan-2-ylmethyl)-1H-tetrazol-5-amine] | 512 (≈ 1600 µM) | 512 (≈ 1600 µM) | < 4.00 | < 4.00 | < 4.00 | < 4.00 |  |
| O=C(O)c1cn(C2CC2)c2cc(N3CCNCC3)c(F)cc2c1=O [Ciprofloxacin, reference compound] |  |  |  |  |  |  | MIC (E. hirae ATCC 10541 [4]; Enterococcus hirae, ATCC10541, 18 h): 2 µg/mL (≈ 6.04 µM) |

Reference: PMC7827014, “Synthetic Transition from Thiourea-Based Compounds to Tetrazole Derivatives: Structure and Biological Evaluation of Synthesized New N-(Furan-2-ylmethyl)-1H-tetrazol-5-amine Derivatives” (Molecules, 2021)
